Data from US20030207791A1, “Materials and methods relating to the treatment of leukaemias” (priority 2000, published 2003).

Experiments:
Format in all cases: cell-based
ΔCC-PML-RAR = assay: RA sensitivity of transcriptional repression, RARE-G5-TATA reporter; conditions: RA 1 nM-10 μM, repression by ΔCC-PML-RAR
Source text: Light units were normalized to expression of a co-transfected β-galactosidase expression plasmid.

[1] = test system: murine hematopoietic progenitors (lin-); assay: In vitro differentiation of murine hematopoietic progenitor cells transduced with retroviral constructs; conditions: control cells, RA 3 nM or 1 μM; maximum; as described (Purton et al., 1999)
Experimental: FIG. 5. A heterologous oligomerization domain activates the transforming potential of RAR. (A-B) p53-RAR form oligomers. (A) Nuclear extracts from COS-1 cells transfected with expression vectors for p53-RAR or RAR were incubated with tritiated RA (10 nM), fractionated and analysed as described in FIG. 3A. Note that the low MW peak of RA-binding capacity (coinciding with RAR) in p53-RAR cells derives from expression of wild type RAR, starting from its own ATG-conserved in the p53-RAR expression vector (see below)-. (B) Fractions from gel filtration of in vitro translated, ^35-S labelled p53-RAR were analysed by SDS-PAGE, followed by autoradiography. Note that two products are generated in the reaction: full-length p53-RAR, fractionating in oligomeric complexes, and RAR, starting from the internal ATG site of RAR and fractionating as a monomer. […] After sorting, cells were either plated in differentiation medium in the absence or in the presence of RA (3 nM or 1 μM) (C), or analysed by Western blot (D). […]
The capacity of p53-RAR to block differentiation was evaluated using primary hematopoietic precursors purified from murine bone marrow on the basis of the absence of surface differentiation antigens (lin-see methods). […] After 8-10 days, colonies were pooled and analysed for the expression of myeloid differentiation markers (Mac-1 and GR-1). […]

[2] = test system: CC-RAR expressing murine primary haemopoietic precursors; assay: RA relief of differentiation block in transduced murine primary haemopoietic precursors; conditions: RA 3 nM or 1 μM, block by CC-RAR
Source text: (§1) FIG. 5. […] (C-D) Effects of RAR chimeric proteins on differentiation of murine hematopoietic progenitors. Lin-cells were transduced with the indicated retroviral vectors and then sorted by FACS on the basis of their GFP positivity. In the case of ΔCC-PML-RAR, GFP+ cells were sorted in GFP^high or GFP^low expressors.
(§2) Murine hematopoietic progenitors were purified from the bone marrow of 12 weeks old BALB-C mice using commercially available kits (StemCell Tecnology). Cells were selected on the basis of the absence of lineage differentiation markers (lin−). Purified cells were pre-stimulated for two days in medium containing IL-3 (20 ng/ml), IL-6 (20 ng/ml) and stem cell factor (SCF, 100 ng/ml) and then attached to Retronectin (Takara Shuzo)-coated multiwell plates. Cells were incubated for 48 hours with the filtered supernatant from ecotropic packaging cells (Phoenix) transiently transfected with the indicated retroviral constructs (Grignani et al., 1998).

[3] = test system: PML-RAR expressing murine primary haemopoietic precursors; assay: as above; conditions: RA 3 nM or 1 μM, block by PML-RAR
Source text: as §1, §2

CC1=C(/C=C/C(C)=C/C=C/C(C)=C/C(=O)O)C(C)(C)CCC1 [RA, retinoic acid]
RA concentration that reverted transcriptional repression (ΔCC-PML-RAR): up to 100 nM
reduction in the number of Mac1+ cells [1]: 20-30%
RA concentration that relieved the differentiation block [2]: 1 µM
RA concentration that relieved the differentiation block [3]: 1 µM
